From paper PMC5352362, “Molecular and functional evaluation of a novel HIF inhibitor, benzopyranyl 1,2,3-triazole compound” (Oncotarget, 2016)

Experiments:
[1] = tested on: HUVECs; assay: BrdU cell proliferation assay, VEGF-induced; assay type: cell-based, human; details: VEGF 20 ng/mL
Experimental: (§1) Figure 5 Compound 12 suppressed HIF-1α target gene expression, and confirmation of in vitro results via determination of effects on angiogenesis in vivo (A) A549 cells were treated with Compound 12 (at concentrations of 0 nM, 1 nM, 10 nM, and 100 nM) for 16 h. The mRNA levels of HIF-1α target genes were determined by semiquantitative RT-PCR. β-actin was used as an internal control. D. DMSO vehicle control. N, normoxia; H, hypoxia. (B) A549 cells were treated with serum-reduced culture media containing Compound 12 (at concentrations of 0 nM, 10 nM, and 100 nM) for 16 h. Media supernatant was collected, and secreted VEGF was determined by ELISA after removal of cellular debris. N, normoxia; H, hypoxia. **P < 0.01 versus hypoxia (H) DMSO (D)-treated control. (C) HUVECs were treated with Compound 12, at the indicated concentrations, in the presence of VEGF (20 ng/mL) for 24 h in 1% serum-containing media. […] Cells that migrated through the membrane (8 μm pore size) were stained with hematoxylin and eosin, pictured as shown in upper panel, and counted (graph). *P < 0.05, **P < 0.01 versus VEGF-treated control. […] (F) Compound 12 (0.1 μg and 1 μg dosages) and retinoic acid (RA, positive control) were applied to the ED 4.5 CAM for two days, neovessel formation from the large vessels was observed, and percentages of positive angiogenic eggs (from total eggs tested) were calculated. […]

[2] = tested on: chick chorioallantoic membrane angiogenesis; assay: Chick embryo chorioallantoic membrane (CAM) assay; assay type: in vivo; details: applied to ED 4.5 CAM for two days; Compound 12 0.1 μg and 1 μg
Experimental: as §1

[3] = target: HIF-1α (Homo sapiens, UniProt Q16665); assay: HIF-1α ubiquitination, IP/IB with MG132 in A549 cells; assay type: cell-based; details: hypoxia 16 h, then MG132 20 μM 4 h, compared to normoxic control cells
Chain of HIF-1α (Q16665 whole entry): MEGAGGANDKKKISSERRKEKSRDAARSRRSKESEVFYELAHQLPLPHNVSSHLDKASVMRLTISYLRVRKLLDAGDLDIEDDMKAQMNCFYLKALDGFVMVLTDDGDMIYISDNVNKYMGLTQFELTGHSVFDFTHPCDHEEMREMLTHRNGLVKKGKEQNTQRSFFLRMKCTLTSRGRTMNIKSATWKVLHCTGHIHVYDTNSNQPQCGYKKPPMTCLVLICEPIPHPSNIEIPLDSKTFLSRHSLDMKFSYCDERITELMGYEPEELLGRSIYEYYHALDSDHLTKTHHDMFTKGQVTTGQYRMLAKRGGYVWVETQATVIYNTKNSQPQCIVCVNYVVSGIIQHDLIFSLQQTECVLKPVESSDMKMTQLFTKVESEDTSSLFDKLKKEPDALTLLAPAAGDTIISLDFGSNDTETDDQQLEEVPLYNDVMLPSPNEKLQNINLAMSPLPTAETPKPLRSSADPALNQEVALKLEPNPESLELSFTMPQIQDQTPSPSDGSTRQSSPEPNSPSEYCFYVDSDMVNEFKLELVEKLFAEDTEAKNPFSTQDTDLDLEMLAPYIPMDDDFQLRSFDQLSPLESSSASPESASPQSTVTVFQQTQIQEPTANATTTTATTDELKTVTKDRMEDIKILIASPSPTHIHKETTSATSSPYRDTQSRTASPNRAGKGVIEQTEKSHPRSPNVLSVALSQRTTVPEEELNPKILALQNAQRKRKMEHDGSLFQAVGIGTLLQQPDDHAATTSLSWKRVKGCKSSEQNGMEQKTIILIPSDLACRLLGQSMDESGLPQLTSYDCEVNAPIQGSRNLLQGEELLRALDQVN
Experimental: Figure 4 Compound 12 increased hydroxylation and proteasome-mediated degradation of HIF-1α (A) A549 cells were treated with Compound 12 (at concentrations of 0 nM, 1 nM, 10 nM, and 100 nM) for 16 h. Cells were fixed with paraformaldehyde; an immunofluorescence assay was then performed using anti-HIF-1α antibodies and Alexa Fluor 488-labeled secondary antibodies (green). Nuclei were stained with DAPI. N, normoxia; H, hypoxia. (B) A549 cells were treated with Compound 12 (10 nM concentration) and exposed to hypoxic conditions for 16 h. Cells were immediately treated with cycloheximide (CHX, 100 μg/mL) for the time indicated, and HIF-1α protein levels were determined by western blotting. β-actin was used as an internal control. Half-life (t1/2) of HIF-1α protein was determined using relative expression levels of HIF-1α. (C) A549 cells were treated with Compound 12 (at concentrations of 0 nM, 1 nM, 10 nM, and 100 nM) for 16 h. The expression levels of HIF-1α, hydroxylated (OH)-HIF-1α at P402 or P564, and PHD2 were determined via western blotting using specific antibodies. N, normoxia; H, hypoxia. (D) A549 cells were transfected with two kinds of small interfering RNAs targeting PHD2 and then treated with Compound 12 under hypoxic exposure for 16 h. Cell lysates were immunoblotted with an anti-HIF-1α and PHD2 antibody. […] Relative levels of ubiquitinated HIF-1α were quantified and graphed. […]

COc1ccc(-c2cn(CC3(C)C=Cc4cc([N+](=O)[O-])ccc4O3)nn2)cc1 (stereo not drawn) [Compound 12, 4-(4-methoxyphenyl)-1-((2-methyl-6-nitro-2H-chromen-2-yl)methyl)-1H-1,2,3-triazole]
VEGF-induced endothelial cell proliferation (BrdU) [1]: significantly inhibited VEGF-induced proliferation
CAM angiogenesis [2]: significantly suppressed CAM angiogenesis, in a dose-dependent manner
ubiquitination of HIF-1α [3]: significantly increased
